According to PubChem BioAssay (NCI):
Values joined by “and” are separate entries in the source; they are usually repeats but may differ in a detail not shown here. Equal values may be shown once.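 Method: 48-hour compound exposure of cells in 96-well plates, five concentrations, linear interpolation of endpoints. At the GI50, growth is halved. Definition used: TGI = concentration required for complete inhibition of growth.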

Experiments:
Assay in all cases: growth of human tumour cells (NCI), 48 h
786-0 renal = tested on: 786-0 renal
EKVX NSCLC = tested on: EKVX NSCLC
HT29 colon = tested on: HT29 colon
OVCAR-5 ovarian = tested on: OVCAR-5 ovarian
PC-3 prostate = tested on: PC-3 prostate
SF-268 CNS = tested on: SF-268 CNS
SNB-19 CNS = tested on: SNB-19 CNS
NCI-H522 lung = tested on: NCI-H522 lung
SK-MEL-5 melanoma = tested on: SK-MEL-5 melanoma
UACC-62 melanoma = tested on: UACC-62 melanoma

Compound	GI50 (786-0 renal)	TGI (786-0 renal)	GI50 (EKVX NSCLC)	TGI (EKVX NSCLC)	GI50 (HT29 colon)	TGI (HT29 colon)	GI50 (OVCAR-5 ovarian)	TGI (OVCAR-5 ovarian)	GI50 (PC-3 prostate)	TGI (PC-3 prostate)	TGI (SF-268 CNS)	GI50 (SNB-19 CNS)	TGI (SNB-19 CNS) [µM]	TGI (NCI-H522 lung) [µM]	TGI (SK-MEL-5 melanoma) [µM]	TGI (UACC-62 melanoma) [µM]	GI50 (SF-268 CNS) [µM]	GI50 (SK-MEL-5 melanoma) [µM]	GI50 (UACC-62 melanoma) [µM]
CN1CCc2cc3c(cc2C1O)OCO3 (configuration not stated)	17.6 µM and > 100 µM	34.5 µM and > 100 µM	17.8 µM and > 100 µM	36.8 µM and > 100 µM	21.4 µM and > 100 µM	47.1 µM and > 100 µM	19 µM and > 100 µM	33.3 µM and > 100 µM	17 µM and > 100 µM	42.7 µM and > 100 µM	30.8 µM and > 100 µM	34.6 µM and > 100 µM	> 100						
COc1ccc(/C=C2\CN(C)Cc3c2nc(N)nc3-c2ccc(OC)cc2)cc1		> 100 µM		> 100 µM				> 100 µM			> 100 µM		> 100	> 100	> 100	> 100			
COc1ccc(/C(=N/NC(N)=O)C2(O)C(=O)Nc3ccc([N+](=O)[O-])cc32)cc1 (configuration not stated)		30.2 µM		> 100 µM		42.2 µM		81.2 µM			40.6 µM		> 10	41.9	77.2	43.6			
COc1cc(CCc2cccnc2)cc(OC)c1OC		> 100 µM		> 100 µM		> 100 µM		> 100 µM			> 100 µM		> 100	> 100	> 100	> 100			
N#C/C(=C\c1ccccc1O)C(N)=O		> 100 µM		> 100 µM		> 100 µM		> 100 µM			> 100 µM		> 100	> 100	> 100	> 100			
CCOc1ccccc1NC(=O)CCC(=O)OC		> 100 µM		> 100 µM		> 100 µM		> 100 µM			> 100 µM		> 100	> 100	> 100	> 100			
C[n+]1c(/C=C\C=C\N2CCCCC2)sc2ccccc21	2.55 µM	> 36.6 µM	0.255 µM	10.8 µM	0.321 µM	11.7 µM	5.2 µM	> 35.2 µM	0.237 µM	2.97 µM	14.8 µM	0.538 µM	17.2		1.5	12.4	0.457	0.276	0.691
CC1=CCC[C@@]2(C)C(CC[C@@H]2C(C)/C=C/C(C)C)c2ccc(cc2C(=O)O)C[C@@H](O)CC1 (some centres not stated)		27.9 µM				17.6 µM		30 µM			29.7 µM		17.5	29.8	12.5	23			
CC1=CC2CC(C)=C(CC[C@]3(C)CC[C@H]([C@@H](C)C(=O)O)OO3)C(C)(C)C2CC1 (some centres not stated)		4.78 µM		3.64 µM		0.429 µM		3.8 µM			3.24 µM		3.08	0.383	2.52	2.81			
C[N+]1(C)CCCC1C(=O)[O-] (configuration not stated)		> 100 µM		> 100 µM		> 100 µM					> 100 µM		> 100	> 100		> 100			
CO/C(=N\N=C\c1cc(OC)ccc1OC)c1ccncc1		> 10 µM						> 10 µM		> 10 µM	> 10 µM		> 10		> 10				
O=C(Nc1c(O)[nH]c(=S)[nH]c1=O)c1ccccn1		> 100 µM				> 100 µM		> 100 µM			> 100 µM		> 100	> 100	> 100	> 100			
CC1CC2C3CC(F)C4=CC(=O)C=CC4(C)C3(F)C(O)CC2(C)C1(O)C(=O)COC(=O)C(C)(C)C (configuration not stated)		> 100 µM		> 100 µM		> 100 µM		> 100 µM			> 100 µM		> 100	> 100	> 100	> 100			
S=c1sc2c(Cl)ncnc2n1-c1ccccc1		29.2 µM		31.5 µM		24.1 µM		53.8 µM			18.5 µM		32.9	3.8	29.7	21.4			
CCN(CC)CCNC(=O)c1ccccc1NC(=O)C(=O)Nc1ccccc1C(=O)NCCN(CC)CC		42.6 µM		> 100 µM		> 100 µM		> 100 µM			> 100 µM		> 100	> 100	35.6	> 100			
O=C1c2ccccc2C2(O)Nc3cc(O)ccc3C12O (configuration not stated)		> 100 µM		> 100 µM		> 100 µM		> 100 µM			> 100 µM		> 100	> 100	> 100	> 100			
CC(=O)OCC1OC(Nc2[nH]c(=O)n(C)c(=O)c2-c2csc(N)n2)C(OC(C)=O)C(OC(C)=O)C1OC(C)=O (configuration not stated)		> 100 µM				> 100 µM		> 100 µM			> 100 µM		> 100	> 100	> 100	> 100			
